In ChEMBL document CHEMBL6177958, “6,7-Dimethoxy-2-methyl-4-substituted quinazolines: Design, synthesis, EGFR inhibitory activity, in vitro cytotoxicity, and in silico studies” (Eur J Med Chem, 2025):

Columns and labels:
Type in all cases: functional
[1] = system: HCT-116; assay: Cell cycle arrest in human HCT-116 cells assessed as accumulation of cells at G2-M phase by flow cytometry (reference value: 14.41%)
[2] = system: HCT-116; assay: Induction of apoptosis in human HCT-116 cells assessed as early apoptotic cells measured after 24 hrs by PI based flow cytometry (reference value: 0.43%)
[3] = system: HCT-116; assay: Induction of apoptosis in human HCT-116 cells assessed as total apoptotic cells measured after 24 hrs by PI based flow cytometry (reference value: 2.38%)
[4] = system: HCT-116; assay: Induction of apoptosis in human HCT-116 cells assessed as necrotic apoptotic cells measured after 24 hrs by PI based flow cytometry (reference value: 1.84%)
[5] = system: HCT-116; assay: Cell cycle arrest in human HCT-116 cells assessed as accumulation of cells at G0-G1 phase by flow cytometry (reference value: 46.33%)
[6] = system: HCT-116; assay: Induction of apoptosis in human HCT-116 cells assessed as late apoptotic cells measured after 24 hrs by PI based flow cytometry (reference value: […])
[7] = system: HCT-116; assay: Cell cycle arrest in human HCT-116 cells assessed as accumulation of cells at S phase by flow cytometry (reference value: 39.26%)

Which results are given for `COc1cc2nc(C)nc(N/N=C/c3cc(CN4CCN(C)CC4)c(O)c(OC)c3)c2cc1OC`?
Activity [1]: 8.71%; Activity [2]: 26.13%; Activity [3]: 39.88%; Activity [4]: 2.48%; Activity [5]: 42.18%; Activity [6]: 11.27%; Activity [7]: 49.11%
